What was measured:
[1] = SPF calculated by modified Sayre method; type: physicochemical
Source text: In the following Table 20, there are SPF values obtained in vitro spectrophotometrically, which have been calculated by a classical Sayre method (Sayre, R M; Agin, P P; LeVee, G J; Marlowe, E. A comparison of in vivo and in vitro testing of sunscreening formulas, Photochem. Photobiol. 1979, 29, 559-566) and modified Sayre method, which gives results similar to those obtained in the in vivo tests recommended by COLIPA.
• (1) For water insoluble chemical filters, the modified Sayre method gives results close to those calculated by Simulator-Calculator (BASF) and the in vivo tests. The Simulator-Calculator uses the modified Sayre method assuming an exponentiation equal to 0.827 (X^0.827). • (2) For water soluble natural filters, the same modified Sayre method would give results close to those obtained by the in vivo tests (predicted by Simulator-Calculator). Examples of Cosmetic Compositions with Fully Natural Sun Protective Factors • 1. Sun protective lotion SPF 50+, high UV-A protection • 2. Sun protective cream SPF 50+, high UV-A protection • 3. Sun protective serum for pregnant and milking women SPF 50+, high UV-A protection • 4. Sun protective milk for babies SPF 50+, high UV-A protection • 5. Sun protective lotion SPF 20-30, high UV-A protection for people with highly sensitive skin E. Analysis of Sun Protective Parameters of Two Lotions and Cream Containing Lippia citriodora Extract with 40% of Verbascoside.

[2] = Critical wavelength (λC) from absorption spectra (Eq. 2); type: physicochemical; settings: for critical wavelength: chemical sunscreen, no concentration stated
Method: The Critical Wavelength λC is the wavelength, where the area under the absorbance spectrum for the irradiated product from 290 nm to λC is equal to 90% of the integral value of the absorbance spectrum from 290 to 400 nm and was calculated using Eq. 2:
where A (λ)=monochromatic absorbance values at wavelength λ. The critical wavelength was determined for all samples in order to assess a degree of UVA protection. In cases where the critical wavelength is lower than 370 nm, the protection from UVA is less evident.
The Critical Wavelength λC value for the test product was defined as that wavelength where the area under the absorbance spectrum of the sample from 290 nm to λC is 90% of the integral of the absorbance spectrum from 290 to 400 nm and is calculated using Eq. 2:
[formula] • A(λ)=monochromatic absorbance values at wavelength λ

[3] = UVA/UVB ratio from absorption spectra (Eq. 3) and Boots UVA Star Rating; type: physicochemical; settings: for ratio UVA/UVB: chemical sunscreen, no concentration stated
Method: Critical Wavelength (λC) and the UVA/UVB ratios were also calculated from the absorption spectra and were collected in Table 2. […] According to these International indications, aqueous solutions of Haberlea rhodopensis with different concentrations of myconoside can be attributed to the group of good protection (2 UVA Star Rating).
In order to further characterize solutions as skin photo-protectors from UVA, the UVA/UVB ratio was calculated using Eq. 3: […]
In order to characterize the ability of creams to protect skin against UVA the UVA/UVB ratio was calculated using Eq. 3: […]

[4] = Solubility of chemical UV filters
[5] = In vitro spectrophotometric SPF calculated by the Sayre equation (Eq. 1); type: physicochemical
Method: Each sample (1 ml) was placed in a 1 cm quartz cell. The absorbance was measured between 250-600 nm at an interval of every 1 nm using a Varian UV/Vis spectrophotometer (Cary 50 Scan). The following parameters were measured and calculated for each sample assuming standard application to the skin—2 mg/cm^2: • the SPF values. • the critical wavelength λC • the UVA/UVB ratio 1. […]
Each sample (1 ml) was placed in a 1 cm quartz cell. The absorbance was measured between 250-600 nm at an interval of every 1 nm using a Varian UV/Vis spectrophotometer (Cary 50 Scan). The following parameters were measured and calculated for each sample assuming standard application to the skin—2 mg/cm^2: • the SPF values. • the critical wavelength λC • the UVA/UVB ratio
The SPF values in vitro were calculated according to the method described by Sayre et al., (Sayre, R M; Agin, P P; LeVee, G J; Marlowe, E. A comparison of in vivo and in vitro testing of sunscreening formulas, Photochem. Photobiol. 1979, 29, 559-566). The calculation was done using Equation 1: […]
where Ss(λ) is the spectral irradiance, Ser(λ) is the CIE erythema action spectrum and T(λ) is the transmission of the sunscreen. The values of Ss(λ) and Ser(λ) were taken from the literature (B. L. Diffey, J. Robson. A new substrate to measure sunscreen protection factors throughout the ultraviolet spectrum, J. Soc. Cosmet. Chem. 1989, 40, 127-133). […]
SPF values were calculated using Eq. 1 for sun protective cosmetics applied at 2 mg/cm^2 (standard application).
The same methods and equations as in the case of plant extracts were applied.
Solutions of sunscreens at concentrations 0.001% were prepared in duplicate and UV-visible absorption spectra were recorded over the range of 250-600 nm (FIG. 1). On the basis of these spectra, the transmission of the sunscreen (T) was found from monochromatic absorbance values at wavelength λ: T=10^−A(λ).
The SPF in vitro was calculated according to the method described by Sayre et al., (Sayre, R M; Agin, P P; LeVee, G J; Marlowe, E. A comparison of in vivo and in vitro testing of sunscreening formulas, Photochem. Photobiol. 1979, 29, 559-566) following equation 1: […]
where Ss(λ) is the spectral irradiance, Ser(λ) the CIE erythema action spectrum and T(λ) the trans-mission of the sunscreen. Data for Ss(λ) and Ser(λ) are available in the literature (B. L. Diffey, J. Robson. A new substrate to measure sunscreen protection factors throughout the ultraviolet spectrum, J. Soc. Cosmet. Chem. 1989, 40, 127-133).
The SPF values were calculated using Eq 1 with the application conditions 2 mg/cm^2 (Standard application recommended by the European Agency).
The SPF value for lotions were calculated using Eq. 1 for three application conditions at 2 mg/cm^2 (standard application), 2.5 mg/cm^2 and 3 mg/cm^2. In the same Table 22, critical wavelength and the UVA/UVB ratios are shown.

[6] = Photo-stability under solar imitating UVA+UVB irradiation; type: physicochemical; settings: absorption spectra without and after up to 40 min irradiation
[7] = organic (synthetic) chemical sunscreens, Table 1; cited from earlier work
[8] = UV filter 0.5% in sun protective cosmetic
[9] = UV filter 1.0% in sun protective cosmetic
[10] = UV filter 2.5% in sun protective cosmetic
[11] = UV filter 5% in sun protective cosmetic
[12] = UV filter 10% in sun protective cosmetic
[13] = chemical UV filter 0.5% in sun protective solution
[14] = chemical UV filter 1% in sun protective solution
[15] = chemical UV filter 2.5% in sun protective solution
[16] = chemical UV filter 5% in sun protective solution
[17] = chemical UV filter 10% in sun protective solution
[18] = UV filter 0.5% in sun protective cosmetic (Table 20)
[19] = UV filter 1.0% in sun protective cosmetic (Table 20)
[20] = UV filter 2.5% in sun protective cosmetic (Table 20)
[21] = UV filter 5% in sun protective cosmetic (Table 20)
[22] = chemical UV filter 0.5% in sun protective solution (Tables 12-19)
[23] = chemical UV filter 1% in sun protective solution (Tables 12-19)
[24] = chemical UV filter 2.5% in sun protective solution (Tables 12-19)
[25] = chemical UV filter 5% in sun protective solution (Tables 12-19)
[26] = chemical UV filter 10% in sun protective solution (Tables 12-19)

| Critical wavelength (λC) [2, 13] [nm] | Critical wavelength (λC) [2, 14] [nm] | Critical wavelength (λC) [2, 15] [nm] | Critical wavelength (λC) [2, 16] [nm] | critical wavelength [2] [nm] | Photo-stability to solar imitating UVA+UVB irradiation [6] | Compound | SPF values calculated by Modified Sayre [1, 8] | SPF values calculated by Modified Sayre [1, 9] | SPF values calculated by Modified Sayre [1, 10] | SPF values calculated by Modified Sayre [1, 11] | SPF values calculated by the Sayre equation [5, 18] | SPF values calculated by the Sayre equation [5, 19] | SPF values calculated by the Sayre equation [5, 20] | SPF values [5, 22] | SPF values [5, 23] | SPF values [5, 24] | SPF values [5, 25] | Absorbs UV-A [7] | other results |
| --- | --- | --- | --- | --- | --- | --- | --- | --- | --- | --- | --- | --- | --- | --- | --- | --- | --- | --- | --- |
|  |  |  |  |  | HIGHLY unstable | CCCCC(CC)COC(=O)C=Cc1ccc(OC)cc1 (stereo not drawn) [octyl methoxycinnamate, Ethylhexyl methoxycinnamate] |  |  |  |  |  |  |  |  |  |  |  |  |  |
| 365 | 365 | 365 | 365 | 365 | HIGHLY unstable | CCCCC(CC)COc1ccc(-c2nc(-c3ccc(OC)cc3)nc(-c3ccc(OCC(CC)CCCC)cc3O)n2)c(O)c1 (stereo not drawn) [Bis-ethylhexyloxyphenol methoxyphenyl triazine] | 4.2 | 7.5 | 16.1 | 29 | 4.8 | 19 | 93 | 5.7 | 25 | 60 | 89 |  | SPF values calculated by Modified Sayre [1, 12]: 50; Critical wavelength (λC) [2, 17]: 365 nm; UVA/UVB [3, 13]: 0.50; UVA/UVB [3, 14]: 0.50; UVA/UVB [3, 15]: 0.50; UVA/UVB [3, 16]: 0.50; UVA/UVB [3, 17]: 0.50; ratio UVA/UVB [3]: 0.50; SPF ([5]; chemical UV filter 1.5%): 60; SPF ([5]; chemical UV filter 2.0%): 89; SPF values [5, 26]: 107 |
| 385 | 385 | 385 | 385 | 385 | HIGHLY unstable | butylmethoxydibenzoylmethane [avobenzone] | 1.5 | 2.1 | 3.2 | 4.4 | 1.5 | 2.0 | 6.1 | 1.9 | 3.0 | 19 | 297 |  | SPF values calculated by the Sayre equation [5, 21]: 32 |
|  |  |  |  |  |  | O=S(=O)([O-])c1cc(S(=O)(=O)O)cc2[nH]c(-c3ccc(-c4nc5c(S(=O)(=O)[O-])cc(S(=O)(=O)O)cc5[nH]4)cc3)nc12.[Na+].[Na+] [Neoheliopan AP] |  |  |  |  |  |  |  |  |  |  |  | UV-A |  |
|  |  |  |  |  |  | Cc1cc(CC(C)C[Si](C)(O[Si](C)(C)C)O[Si](C)(C)C)c(O)c(-n2nc3ccccc3n2)c1 (stereo not drawn) [Mexoryl XL] |  |  |  |  |  |  |  |  |  |  |  | UV-A | Absorbs UV-B [7]: UV-B |
|  |  |  |  |  |  | CCCCC(CC)COC(=O)c1ccc(Nc2nc(Nc3ccc(C(=O)NC(C)(C)C)cc3)nc(Nc3ccc(C(=O)OCC(CC)CCCC)cc3)n2)cc1 (stereo not drawn) [Uvasorb HEB] |  |  |  |  |  |  |  |  |  |  |  |  | Absorbs UV-B [7]: UV-B |
|  |  |  |  |  |  | CC1(C)C2CCC1(CS(=O)(=O)O)C(=O)C2=Cc1ccc(C=C2C(=O)C3(CS(=O)(=O)O)CCC2C3(C)C)cc1 [Mexoryl SX] |  |  |  |  |  |  |  |  |  |  |  | UV-A |  |

| Compound | Critical wavelength (λC) [2, 13] [nm] | Critical wavelength (λC) [2, 14] [nm] | Critical wavelength (λC) [2, 15] [nm] | Critical wavelength (λC) [2, 16] [nm] | critical wavelength [2] [nm] | Photo-stability to solar imitating UVA+UVB irradiation [6] | SPF values calculated by Modified Sayre [1, 8] | SPF values calculated by Modified Sayre [1, 9] | SPF values calculated by Modified Sayre [1, 10] | SPF values calculated by Modified Sayre [1, 11] | SPF values calculated by the Sayre equation [5, 18] | SPF values calculated by the Sayre equation [5, 19] | SPF values calculated by the Sayre equation [5, 20] | SPF values [5, 22] | SPF values [5, 23] | SPF values [5, 24] | SPF values [5, 25] | Absorbs UV-A [7] | other results |
| --- | --- | --- | --- | --- | --- | --- | --- | --- | --- | --- | --- | --- | --- | --- | --- | --- | --- | --- | --- |
| CCCCCCCCCCCCc1cc(C)cc(-n2nc3ccccc3n2)c1O [benzotriazolyl dodecyl p-cresol, Benzotriazolyl dodecyl p-cresol] | 363 | 363 | 363 | 363 | 363 |  | 2.0 | 3.1 | 5.4 | 8.3 | 2.1 | 5 | 29 | 2.4 | 6 | 41 | 105 |  | SPF values calculated by Modified Sayre [1, 12]: 12.7; SPF values calculated by Modified Sayre ([1]; UV filter 20% in sun protective cosmetic): 19; Critical wavelength (λC) [2, 17]: 363 nm; UVA/UVB [3, 13]: 0.62; UVA/UVB [3, 14]: 0.62; UVA/UVB [3, 15]: 0.62; UVA/UVB [3, 16]: 0.62; UVA/UVB [3, 17]: 0.62; ratio UVA/UVB [3]: 0.62; Solubility in water [4]: insoluble in water; SPF values calculated by the Sayre equation [5, 21]: 91; SPF values calculated by the Sayre equation ([5]; UV filter 10% in sun protective cosmetic (Table 20)): 132; SPF values [5, 26]: 157 |
